[invAb] = inverted abasic unit; m = 2'-O-methyl; r = 2'-OH (RNA); f = 2'-fluoro
Columns and labels:
STAT6 mRNA [1] = assay: STAT6 siNA screen in mouse NIH 3T3 cells, STAT6 mRNA by quantitative RT-PCR (Taqman); assay type: cell-based; settings: mouse NIH3T3 cells, 10 nM siNA, 24 hrs, normalized to GAPDH and non-targeting control, n = 2
Experimental: NIH 3T3 (mouse; ATCC cat# CRL-1658): Cells were cultured at 37° C. in the presence of 5% CO2 and grown in Dulbecco's modified Eagle's medium (DMEM) with 4 mM L-glutamine adjusted to contain 1.5 g/L sodium bicarbonate and 4.5 g/L glucose and supplemented with fetal bovine serum at a final concentration of 10%, 100 μg/mL of streptomycin, and 100 U/mL penicillin.
(§1) Cells were plated in all wells of a tissue-culture treated, 96-well plate at a final count of 5000 cells/well in […], of the appropriate culture media. The cells were cultured for 24 hours after plating at 37° C. in the presence of 5% CO2.
(§2) After 24 hours, complexes containing siNA and RNAiMax were created as follows: A solution of RNAiMax diluted 33-fold in OPTI-MEM was prepared. In parallel, solutions of the siNAs for testing were prepared to a final concentration of 120 nM in OPTI-MEM. After incubation of RNAiMax/OPTI-MEM solution at room temperature for 5 min, an equal volume of the siNA solution and the RNAiMax solution were added together for each of the siNAs.
(§3) This solution was incubated at room temperature for 20 minutes. After incubation, 20 uL of the solution was added to each of the relevant wells. The final concentration of siNA in each well was 10 nM and the final volume of RNAiMax in each well was 0.3u1.
(§4) The time of incubation with the RNAiMax-siNA complexes was 24 hours and there was no change in media between transfection and harvesting, unless otherwise indicated.
(§5) RNA was extracted from a 96-well plate using the TaqMan® Gene Expression Cells-to-CT™ Kit (Cat#4399002) with a modified protocol. Briefly, a 60 uL (1 plate) or 110 uL (2 plates) of the Lysis Solution with DNase I was dispensed into each well of the Lysis Buffer Plate (twin.tec full skirt plate). The lysis buffer and stop plates were stored at 4° C. until the cells were washed.
(§6) The plate was spun at 1100 rpm for 5 minutes. The culture medium was aspirated and discarded from the wells of the culture plate. The lysis was performed automatically using a BioMek FX instrument and method. After the Biomek method was completed, the lysis plate was incubated for 2 min. at room temperature. The lysis plate can be stored for 2 hours at 4° C., or at −20° C. or −80° C. for two months.
(§7) Each well of the reverse transcription plate required 10 uL of 2× reverse transcriptase Buffer, luL of 20× reverse transcription enzyme and 2 uL of nuclease-free water. The reverse transcription master mix was prepared by mixing 2× reverse transcription buffer, 20× reverse transcription enzyme mix, and nuclease-free water. 13 uL of the reverse transcription master mix was dispensed into each well of the reverse transcription plate (semi-skirted). A separate reverse transcription plate was prepared for each cell plate. The plate was loaded onto a Biomek NX or Biomek FX Dual-96 and the Biomek method was run. The program is programmed to automatically added 7 uL of lysate from the cell lysis procedure described above into each well of the reverse transcription plate. The plate is sealed and spun on a centrifuge (1000 rpm for 30 seconds) to settle the contents to the bottom of the reverse transcription plate. The plate is placed in a thermocycler at 37° C. for 60 min, 95° C. for 5 min, and 4° C. until the plate is removed from the thermocycler. Upon removal, if not used immediately, the plate was frozen at −20° C.
(§8) A series of probes and primers were used to detect the various mRNA transcripts of the genes of 13-Actin (human cell line only), and of STATE and GAPDH in mouse and human cell lines. All Taqman probes and primers for the experiments here-in described were supplied as pre-validated sets by Applied Biosystems, Inc. (see Table 2).
The assays were performed on an ABI 7900 instrument, according to the manufacturer's instructions. A TaqMan Gene Expression Master Mix (provided in the Cells-to-CTT™, Applied Biosystems, Cat #4399002) was used. […]

STAT6 mRNA [2] = assay: STAT6 siNA screen and dose response in human A549 cells, STAT6 mRNA by quantitative RT-PCR (Taqman); assay type: cell-based; settings: human A549 cells, 10 nM siNA, 24 hrs, normalized to GAPDH and non-targeting control, mean ± S.D., n = 3
Experimental: A549 (human; ATCC cat# CCL-185): Cells were cultured at 37° C. in the presence of 5% CO2 and grown in Ham's F12K medium with 2 mM L-glutamine adjusted to contain 1.5 g/L sodium bicarbonate and supplemented with fetal bovine serum at a final concentration of 10%, 100 μg/mL of streptomycin, and 100 U/mL penicillin.
as §1, §2, §3, §4, §5, §6, §7, §8
The assays were performed on an ABI 7900 instrument, according to the manufacturer's instructions. A TaqMan Gene Expression Master Mix (provided in the Cells-to-CTT™, Applied Biosystems, Cat #4399002) was used. The PCR reactions were carried out at 50° C. for 2 min, 95° C. for 20 min followed by 40 cycles at 95° C. for 15 secs and 60° C. for 1 min. […]

Substance | % KD STAT6 (STAT6 mRNA [1]) [%] | % KD STAT6 (STAT6 mRNA [2]) [%]
29989-DC: STAT6 siNA duplex; sense SEQ ID NO: 42, antisense SEQ ID NO: 43; target GAAGGCUUCUCCGCCCAUU, site 3187 (sense GAAGGCUUCUCCGCCCAUUTT; antisense AAUGGGCGGAGAAGCCUUCUU; sense: DNA at AGT, 2'-fluoro at CU, [invAb] at 5' end, 3' end, backbone not given here; antisense: sugars from the 5' end rrrmmmfmmmmmmmfffffmm, backbone not given here) [STAT6 siNA duplex; target GAAGGCUUCUCCGCCCAUU, site 3187] | −18.3 ± 7.1 | 29.1 ± 3.8
29991-DC: STAT6 siNA duplex; sense SEQ ID NO: 46, antisense SEQ ID NO: 47; target CAGCCAAAGCCCUAGUGCU, site 846 (sense CAGCCAAAGCCCUAGUGCUTT; antisense AGCACUAGGGCUUUGGCUGUU; sense: DNA at AGT, 2'-fluoro at CU, [invAb] at 5' end, 3' end, backbone not given here; antisense: sugars from the 5' end rrrmffmmmmffffmmffmmm, backbone not given here) [STAT6 siNA duplex; target …UAGUGCU, site 846] | −30 ± 9.2 | −2.1 ± 17.7
29992-DC: STAT6 siNA duplex; sense SEQ ID NO: 48, antisense SEQ ID NO: 49; target CUGAGAACCCUCGUCACCA, site 1064 (sense CUGAGAACCCUCGUCACCATT; antisense UGGUGACGAGGGUUCUCAGUU; sense: DNA at AGT, 2'-fluoro at CU, [invAb] at 5' end, 3' end, backbone not given here; antisense: sugars from the 5' end rrrfmmfmmmmmfffffmmmm, backbone not given here) [STAT6 siNA duplex; target CUGAGAACCCUCGUCACCA, site 1064] | −0.5 ± 1 | 51.2 ± 0.4
29993-DC: STAT6 siNA duplex; sense SEQ ID NO: 50, antisense SEQ ID NO: 51; target CCCUUGAGAGCAUAUAUCA, site 519 (sense CCCUUGAGAGCAUAUAUCATT; antisense UGAUAUAUGCUCUCAAGGGUU; sense: DNA at AGT, 2'-fluoro at CU, [invAb] at 5' end, 3' end, backbone not given here; antisense: sugars from the 5' end rrrfmfmfmffmfmmmmmmmm, backbone not given here) [STAT6 siNA duplex; target CCCUUGAGAGCAUAUAUCA, site 519] | −23.4 ± 1.6 | 24.4 ± 8.1
29994-DC: STAT6 siNA duplex; sense SEQ ID NO: 52, antisense SEQ ID NO: 53; target CUGAUCAUUGGCUUCAUCA, site 1880 (sense CUGAUCAUUGGCUUCAUCATT; antisense UGAUGAAGCCAAUGAUCAGUU; sense: DNA at AGT, 2'-fluoro at CU, [invAb] at 5' end, 3' end, backbone not given here; antisense: sugars from the 5' end rrrfmmmmffmmfmmffmmmm, backbone not given here) [STAT6 siNA duplex; target CUGAUCAUUGGCUUCAUCA, site 1880] | −13.9 ± 4.1 | 1.9 ± 15.7
29995-DC: STAT6 siNA duplex; sense SEQ ID NO: 54, antisense SEQ ID NO: 55; target CAGGAUGGCUCUCCACAGA, site 2009 (sense CAGGAUGGCUCUCCACAGATT; antisense UCUGUGGAGAGCCAUCCUGUU; sense: DNA at AGT, 2'-fluoro at CU, [invAb] at 5' end, 3' end, backbone not given here; antisense: sugars from the 5' end rrrmfmmmmmmffrffffmmm, backbone not given here) [STAT6 siNA duplex; target CAGGAUGGCUCUCCACAGA, site 2009] | −6.6 ± 1.3 | 20.4 ± 5.1
29996-DC: STAT6 siNA duplex; sense SEQ ID NO: 56, antisense SEQ ID NO: 57; target GCACCAUCUUGCAACACAU, site 495 (sense GCACCAUCUUGCAACACAUTT; antisense AUGUGUUGCAAGAUGGUGCUU; sense: DNA at AGT, 2'-fluoro at CU, [invAb] at 5' end, 3' end, backbone not given here; antisense: sugars from the 5' end rrrfmffmfmmmmfmmfmfmm, backbone not given here) [STAT6 siNA duplex; target GCACCAUCUUGCAACACAU, site 495] | −10.9 ± 0.1 | 49.5 ± 5.5
29998-DC: STAT6 siNA duplex; sense SEQ ID NO: 60, antisense SEQ ID NO: 61; target CUUCUUAUGACCUUGGAAU, site 2274 (sense CUUCUUAUGACCUUGGAAUTT; antisense AUUCCAAGGUCAUAAGAAGUU; sense: DNA at AGT, 2'-fluoro at CU, [invAb] at 5' end, 3' end, backbone not given here; antisense: sugars from the 5' end rrrffmmmmffmfmmmmmmmm, backbone not given here) [STAT6 siNA duplex; target CUUCUUAUGACCUUGGAAU, site 2274] | −3.8 ± 9.2 | 32.5 ± 3.5
30000-DC: STAT6 siNA duplex; sense SEQ ID NO: 64, antisense SEQ ID NO: 65; target CACAUACAGAGCUCUCUGA, site 3114 (sense CACAUACAGAGCUCUCUGATT; antisense UCAGAGAGCUCUGUAUGUGUU; sense: DNA at AGT, 2'-fluoro at CU, [invAb] at 5' end, 3' end, backbone not given here; antisense: sugars from the 5' end rrrmmmmmffffmfmfmfmmm, backbone not given here) [STAT6 siNA duplex; target CACAUACAGAGCUCUCUGA, site 3114] | −21.9 ± 5.7 | 40.5 ± 12.5

Reference: patent US20120035247A1, “RNA Interference Mediated Inhibition of Signal Transducer and Activator of Transcription 6 (STAT6) Gene Expression Using Short Interfering Nucleic Acid (siNA)” (Merck Sharp & Dohme Corp., priority 2009, published 2012)
